Results on 15 molecules are retold here after US20250368666A1, “INDAZOLE COMPOUNDS” (TYRA BIOSCIENCES, INC., priority 2022, published 2025).

In one assay the target is T1, FGFR1 (Homo sapiens, UniProt P11362).
T1 construct: made in house; host or cells: E. coli (BL21-derived), T7 phage
The assay is described as follows: Kinase binding assay (kinase-tagged T7 phage, affinity beads, qPCR), Kd. Conditions: read-out: FGFR1 (Kd nM). Summed up:
(§1)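 T7 phage displaying each kinase, grown in a BL21-derived E. coli host at 32° C until lysis, competed with test compound for biotinylated ligand immobilised on streptavidin beads. Bead-bound kinase was eluted and quantified by qPCR. Kd came from an 11-point 3-fold dilution series fitted to the Hill equation with slope fixed at −1.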

Another assay concerns the target T2, FGFR3 (Homo sapiens, UniProt P22607).
T2 construct: made in house; host or cells: E. coli (BL21-derived), T7 phage
The assay is described as above. Conditions: read-out: FGFR3 (Kd nM). An outline of the steps:
as §1

Assay [1] deals with KATO-III cell line (FGFR2 amplification). As to the kind of experiment: Cancer cell line cell viability assay (Cell Titer-Glo), 72 hr. The conditions noted are these: Homo sapiens, KATO III. It counts as cell-based. The source says:
(§2) Experimental Purpose: To detect the change of intracellular ATP by Cell Titer-Glo® and to evaluate the inhibitory effect of the compounds on cancer cell lines by determining the in vitro IC50 value of the compounds.
(§3) Cell Titer-Glo® 2.0 Luminescent cell viability assay reagent was purchased from Promega (Madison, WI). KG-1, KATO-III, and MDA-MB-453 cell lines were purchased from American Type Culture Collection (Manassas, VA). RT112/84 cell line was purchased from Millipore-Sigma (St. Louis, MO). HuH7 cells were purchased from Seikisui Xenotech (Kansas City, KS). RT112/84 and MDA-MB-453 cells were cultured in RPMI1640 media supplemented with 10% fetal bovine serum. KG-1 and KATO-III cell lines were cultured in IMDM media supplemented with 20% FBS. HuH7 cells were cultured in IMDM media supplemented with 10% FBS. Cultures were maintained at 37° C. in a humidified atmosphere of 5% CO2 and 95% air.
(§4) Cell Viability Assay Procedure: Cells were plated in 96-well clear bottom/white plates (Corning #3903) at a range of densities depending on the optimal assay window (5,000-20,000 cells/well in […] of media), incubated overnight. The next day, test compound DMSO stock solutions were made at 10 mM and […] final concentration. Compounds were then added to cells in a 9-dose, 4-fold dilution series starting at 3 μM with an HP 300e Digital Dispenser (each dose was applied in triplicate). DMSO was backfilled to each well up to 301 nL total volume of test compound+DMSO, and a total of 301 nL DMSO was added to a control/no test compound well in triplicate. The cells in cell culture plates were incubated with the compounds at 37° C. and 5% CO2 for 72 hours-120 hours depending on the cell line. Then 50 μl of Cell Titer Glo 2.0 reagent was added to each well of the cell culture plates. The contents were covered from light and mixed on an orbital shaker at room temperature for minimum of 10 min. Luminescence was recorded by a Clariostar Plus Microplate Reader (BMG Labtech, Cary, NC). Cells were assessed as a percentage of DMSO only treated control cells. Curves were plotted and IC50 values were calculated using the GraphPad Prism 9 program based on a sigmoidal dose-response equation (log (inhibitor) vs. response—Variable slope, 4-parameter).

In assay [2] the test system is KG-1 cell line (FGFR 1-fusion). The description is as above. It counts as cell-based. The conditions noted are these: Homo sapiens, KG-1, KG-1 cell line (FGFR1-fusion).
Text: as §2, §3, §4

In assay [3] the test system is RT112/84 cell line (FGFR3-fusion). Described as above. It counts as cell-based. The conditions noted are these: Homo sapiens, RT112/84, RT112/84 cell line (FGFR3-fusion).
Text: as §2, §3, §4

For another assay, the target named is T3, FGFR2 (Homo sapiens, UniProt P21802).
T3 construct: made in house; host or cells: E. coli (BL21-derived), T7 phage
T3 sequence (P21802 22-821): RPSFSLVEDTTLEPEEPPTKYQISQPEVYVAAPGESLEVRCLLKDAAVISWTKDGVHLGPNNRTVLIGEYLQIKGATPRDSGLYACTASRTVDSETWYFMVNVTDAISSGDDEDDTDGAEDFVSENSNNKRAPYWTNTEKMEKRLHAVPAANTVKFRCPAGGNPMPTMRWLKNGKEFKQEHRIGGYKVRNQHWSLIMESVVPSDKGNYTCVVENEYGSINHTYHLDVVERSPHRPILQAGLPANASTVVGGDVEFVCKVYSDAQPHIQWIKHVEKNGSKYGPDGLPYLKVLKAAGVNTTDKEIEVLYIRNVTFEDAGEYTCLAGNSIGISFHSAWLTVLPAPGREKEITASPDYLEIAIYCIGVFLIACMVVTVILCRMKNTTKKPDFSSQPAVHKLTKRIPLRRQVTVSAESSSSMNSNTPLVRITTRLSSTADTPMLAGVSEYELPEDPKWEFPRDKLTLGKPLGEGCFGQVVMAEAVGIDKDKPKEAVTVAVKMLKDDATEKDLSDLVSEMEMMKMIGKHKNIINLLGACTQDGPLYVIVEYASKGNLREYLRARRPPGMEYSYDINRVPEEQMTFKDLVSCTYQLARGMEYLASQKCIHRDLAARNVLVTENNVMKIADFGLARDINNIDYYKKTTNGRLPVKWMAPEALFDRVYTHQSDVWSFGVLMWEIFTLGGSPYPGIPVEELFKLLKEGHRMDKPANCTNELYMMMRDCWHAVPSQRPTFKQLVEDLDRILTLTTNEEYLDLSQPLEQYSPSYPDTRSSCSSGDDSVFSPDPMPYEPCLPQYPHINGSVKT
The assay is described as follows: Kinase binding assay (kinase-tagged T7 phage, affinity beads, qPCR), Kd. The conditions noted are these: read-out: FGFR2 (Kd nM). Summed up: as §1

In the next assay the target is T4, FGFR3 (V555M) (Homo sapiens, UniProt P22607, V555M).
T4 construct: made in house; host or cells: E. coli (BL21-derived), T7 phage
T4 sequence (P22607 23-806 V555M): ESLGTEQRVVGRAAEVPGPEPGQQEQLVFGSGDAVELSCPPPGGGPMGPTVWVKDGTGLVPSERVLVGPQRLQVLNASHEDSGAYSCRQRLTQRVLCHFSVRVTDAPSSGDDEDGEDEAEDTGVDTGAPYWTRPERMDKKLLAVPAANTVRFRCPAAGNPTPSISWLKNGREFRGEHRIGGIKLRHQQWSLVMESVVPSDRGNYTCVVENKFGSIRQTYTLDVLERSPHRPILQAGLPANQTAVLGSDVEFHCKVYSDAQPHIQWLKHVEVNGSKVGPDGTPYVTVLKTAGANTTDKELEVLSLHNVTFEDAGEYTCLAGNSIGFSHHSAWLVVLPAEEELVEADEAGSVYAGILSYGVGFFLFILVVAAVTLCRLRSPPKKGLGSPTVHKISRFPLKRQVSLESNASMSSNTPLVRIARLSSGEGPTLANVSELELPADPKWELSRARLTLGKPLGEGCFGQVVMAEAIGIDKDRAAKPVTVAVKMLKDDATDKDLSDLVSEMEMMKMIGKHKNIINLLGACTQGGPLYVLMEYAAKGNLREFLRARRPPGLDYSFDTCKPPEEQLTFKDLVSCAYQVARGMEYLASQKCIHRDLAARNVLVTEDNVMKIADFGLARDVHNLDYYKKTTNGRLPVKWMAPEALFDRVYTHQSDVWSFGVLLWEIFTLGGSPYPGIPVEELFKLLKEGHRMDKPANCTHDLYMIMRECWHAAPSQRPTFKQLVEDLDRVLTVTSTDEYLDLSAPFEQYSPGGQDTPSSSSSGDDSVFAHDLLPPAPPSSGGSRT
The description is as above. Conditions: V555M mutant; read-out: FGFR3 (V555M) (Kd nM). Summed up: as §1

The target in a further assay is T5, FGFR4 (Homo sapiens, UniProt P22455).
T5 construct: made in house; host or cells: E. coli (BL21-derived), T7 phage
T5 sequence (P22455 22-802): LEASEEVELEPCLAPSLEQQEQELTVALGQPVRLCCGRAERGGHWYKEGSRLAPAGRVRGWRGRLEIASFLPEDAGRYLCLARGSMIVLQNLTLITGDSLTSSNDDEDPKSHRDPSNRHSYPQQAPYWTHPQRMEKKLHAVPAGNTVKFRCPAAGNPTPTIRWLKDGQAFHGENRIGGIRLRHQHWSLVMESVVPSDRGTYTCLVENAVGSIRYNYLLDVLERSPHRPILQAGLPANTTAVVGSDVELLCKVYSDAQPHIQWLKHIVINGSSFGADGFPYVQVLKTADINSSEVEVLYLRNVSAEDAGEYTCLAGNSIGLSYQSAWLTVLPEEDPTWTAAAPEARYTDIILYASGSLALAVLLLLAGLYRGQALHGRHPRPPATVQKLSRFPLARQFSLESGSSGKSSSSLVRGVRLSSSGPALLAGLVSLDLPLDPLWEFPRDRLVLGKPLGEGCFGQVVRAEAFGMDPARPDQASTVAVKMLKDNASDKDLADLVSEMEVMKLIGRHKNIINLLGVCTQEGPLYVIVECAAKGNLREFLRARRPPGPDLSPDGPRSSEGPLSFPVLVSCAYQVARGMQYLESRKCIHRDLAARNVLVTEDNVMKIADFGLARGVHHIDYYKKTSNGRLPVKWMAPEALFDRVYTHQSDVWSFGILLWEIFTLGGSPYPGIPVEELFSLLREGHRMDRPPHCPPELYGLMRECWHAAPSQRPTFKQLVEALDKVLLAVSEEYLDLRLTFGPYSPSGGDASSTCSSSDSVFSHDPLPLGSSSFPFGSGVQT
Described as above. Conditions: read-out: FGFR4 (Kd nM). Summed up: as §1

T1 sequence (P11362 22-822): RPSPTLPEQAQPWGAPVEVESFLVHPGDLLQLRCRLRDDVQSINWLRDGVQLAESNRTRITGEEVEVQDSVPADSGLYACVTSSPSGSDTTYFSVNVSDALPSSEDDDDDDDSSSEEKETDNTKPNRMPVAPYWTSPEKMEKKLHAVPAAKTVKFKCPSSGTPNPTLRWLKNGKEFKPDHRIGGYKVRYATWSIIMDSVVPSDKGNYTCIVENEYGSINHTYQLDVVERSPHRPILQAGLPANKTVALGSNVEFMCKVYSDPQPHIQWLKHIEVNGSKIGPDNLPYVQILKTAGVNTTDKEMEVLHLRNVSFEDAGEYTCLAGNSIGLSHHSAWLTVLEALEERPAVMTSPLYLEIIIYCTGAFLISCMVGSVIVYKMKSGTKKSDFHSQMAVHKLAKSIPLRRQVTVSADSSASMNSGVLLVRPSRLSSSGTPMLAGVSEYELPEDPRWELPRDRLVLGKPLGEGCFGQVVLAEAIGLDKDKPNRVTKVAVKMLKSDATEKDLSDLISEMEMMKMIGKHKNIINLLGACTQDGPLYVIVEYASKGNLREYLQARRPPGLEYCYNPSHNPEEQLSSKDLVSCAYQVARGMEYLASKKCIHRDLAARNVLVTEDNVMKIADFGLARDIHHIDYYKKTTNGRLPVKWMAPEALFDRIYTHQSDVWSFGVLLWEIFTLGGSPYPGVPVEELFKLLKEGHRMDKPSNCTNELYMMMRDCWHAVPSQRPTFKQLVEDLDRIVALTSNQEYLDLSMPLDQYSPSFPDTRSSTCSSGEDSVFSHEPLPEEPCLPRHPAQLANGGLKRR
T2 sequence (P22607 23-806): as the sequence (P22607 23-806 V555M) above, with M533V counted along it

For orientation: Kd means a measure of binding affinity in units of concentration. As usually defined, the IC50 is the point on the concentration scale where inhibition reaches its midpoint. Take `C[C@@H](Oc1ccc2[nH]nc(-c3cnc(N4CC(N)(CC#N)C4)c(F)c3)c2c1)c1c(Cl)cncc1Cl` [Example 241, (R)-2-(3-amino-1-(5-(5-(1-(3,5-dichloropyridin-4-yl)ethoxy)-1H-indazol-3-yl)-3-fluoropyridin-2-yl)azetidin-3-yl)acetonitrile]: the Kd at FGFR1 and on FGFR3 was 1 to 50 nM throughout. The results for the IC50 in assay [1], in assay [2] and in assay [3] were 0.1 to 50 nM, 50 to 200 nM and 0.1 to 50 nM, respectively.

`C=CCNC1(CC#N)CN(c2ncc(-c3n[nH]c4ccc(O[C@H](C)c5c(Cl)cncc5Cl)cc34)cc2F)C1` [Example 248, 2-[3-(allylamino)-1-[5-[5-[(1R)-1-(3,5-dichloro-4-pyridyl)ethoxy]-1H-indazol-3-yl]-3-fluoro-2-pyridyl]azetidin-3-yl]acetonitrile]: the Kd at FGFR1 and on FGFR3 was 1 to 50 nM in each case. The 50% inhibitory concentration (IC50) in assay [1] was 50 to 200 nM; in assay [2] it was 200 to 1000 nM; in assay [3], 0.1 to 50 nM.

On to `C[C@@H](Oc1ccc2[nH]nc(-c3ccc(N4CC(C)(NCC5CC5)C4)nn3)c2c1)c1c(Cl)cncc1Cl` [Example 249, (R)-N-(cyclopropyl-methyl)-1-(6-(5-(1-(3,5-dichloropyridin-4-yl)ethoxy)-1H-indazol-3-yl)pyridazin-3-yl)-3-methylazetidin-3-amine], for which the Kd on FGFR1 and at FGFR3 was 1 to 50 nM in each case. The half-maximal inhibitory concentration (IC50) was in the range of 0.1 to 50 nM in assay [1], 50 to 200 nM in assay [2] and 0.1 to 50 nM in assay [3].

Regarding `C[C@@H](Oc1ccc2[nH]nc(-c3ccc(N4CC(N)(CCS(C)(=O)=O)C4)nn3)c2c1)c1c(Cl)cncc1Cl` [Example 294, (R)-1-(6-(5-(1-(3,5-dichloropyridin-4-yl)ethoxy)-1H-indazol-3-yl)pyridazin-3-yl)-3-(2-(methylsulfonyl)ethyl)azetidin-3-amine], the Kd on FGFR1 and on FGFR3 was 1 to 50 nM each time. For the same molecule, the IC50 in assay [1] was 50 to 200 nM; in assay [2], over 1000 nM; in assay [3], 0.1 to 50 nM.

With `CCCC1(N)CN(c2ccc(-c3n[nH]c4ccc(O[C@H](C)c5c(Cl)cncc5Cl)cc34)nn2)C1` [Example 295, (R)-1-(6-(5-(1-(3,5-dichloropyridin-4-yl)ethoxy)-1H-indazol-3-yl)pyridazin-3-yl)-3-propylazetidin-3-amine], the Kd on FGFR1 and at FGFR3 was 1 to 50 nM each time. The IC50 in assay [1] was in the range of 50 to 200 nM; in assay [3] it was 0.1 to 50 nM.

For the molecule `C[C@@H](Oc1ccc2[nH]nc(-c3ccc(N4CC(C)(NC(=O)CN(C)C)C4)nn3)c2c1)c1c(Cl)cncc1Cl` [Example 297, (R)—N-(1-(6-(5-(1-(3,5-dichloropyridin-4-yl)ethoxy)-1H-indazol-3-yl)pyridazin-3-yl)-3-methylazetidin-3-yl)-2-(dimethylamino)acetamide], the Kd at FGFR1 and on FGFR3 was 1 to 50 nM throughout. The half-inhibitory concentration (IC50) in assay [1], in assay [2] and in assay [3] was 0.1 to 50 nM throughout.

Consider `C[C@@H](Oc1ccc2[nH]nc(-c3cnc(N4CC(N)(CCC#N)C4)c(F)c3)c2c1)c1c(Cl)cncc1Cl` [Example 298, (R)-3-(3-amino-1-(5-(5-(1-(3,5-dichloropyridin-4-yl)ethoxy)-1H-indazol-3-yl)-3-fluoropyridin-2-yl)azetidin-3-yl)propanenitrile], for which the Kd at FGFR1 and at FGFR3 was 1 to 50 nM each time. For the same molecule, the IC50 in assay [1] was in the range of 0.1 to 50 nM; in assay [2], 50 to 200 nM; in assay [3], 0.1 to 50 nM.

On to `CCC1(N)CN(c2ccc(-c3n[nH]c4ccc(O[C@H](C)c5c(Cl)cncc5Cl)cc34)nn2)C1` [Example 299, (R)-1-(6-(5-(1-(3,5-Dichloropyridin-4-yl)ethoxy)-1H-indazol-3-yl)pyridazin-3-yl)-3-ethylazetidin-3-amine], for which the Kd on FGFR1 and on FGFR3 was 1 to 50 nM throughout. Moreover, the half-maximal inhibitory concentration (IC50) in assay [1] fell in the range of 50 to 200 nM; in assay [2], 50 to 200 nM; in assay [3] it was 0.1 to 50 nM.

Regarding `CNC(=O)C1(N)CN(c2ccc(-c3n[nH]c4ccc(O[C@H](C)c5c(Cl)cncc5Cl)cc34)nn2)C1` [Example 300, (R)-3-amino-1-(6-(5-(1-(3,5-dichloropyridin-4-yl)ethoxy)-1H-indazol-3-yl)pyridazin-3-yl)-N-methylazetidine-3-carboxamide], the dissociation constant (Kd) on FGFR1 and at FGFR3 was 1 to 50 nM throughout. The values for the half-inhibitory concentration (IC50) in assay [1], in assay [2] and in assay [3] were 50 to 200 nM, over 1000 nM and 0.1 to 50 nM, respectively.

Take `C[C@@H](Oc1ccc2[nH]nc(-c3ccc(N4CC(C)(NCCF)C4)nn3)c2c1)c1c(Cl)cncc1Cl` [Example 309, (R)-1-(6-(5-(1-(3,5-dichloropyridin-4-yl)ethoxy)-1H-indazol-3-yl)pyridazin-3-yl)-N-(2-fluoroethyl)-3-methylazetidin-3-amine]: the Kd at FGFR1 and at FGFR3 was 1 to 50 nM each time. Moreover, the IC50 in assay [2] is 50 to 200 nM; in assay [3], 0.1 to 50 nM.

In the case of `C[C@@H](Oc1ccc2[nH]nc(-c3cnc(N4CC(C)(NCCC#N)C4)c(F)c3)c2c1)c1c(Cl)cncc1Cl` [Example 310, (R)-3-((1-(5-(5-(1-(3,5-dichloropyridin-4-yl)ethoxy)-1H-indazol-3-yl)-3-fluoropyridin-2-yl)-3-methylazetidin-3-yl)amino)propane-nitrile], the equilibrium dissociation constant (Kd) on FGFR1 and at FGFR3 was 1 to 50 nM throughout. The IC50 in assay [2] fell in the range of 50 to 200 nM; in assay [3], 0.1 to 50 nM.

As for `C[C@@H](Oc1ccc2[nH]nc(-c3cnc(N4CC(C)(CP(C)(C)=O)C4)c(C#N)c3)c2c1F)c1c(Cl)cncc1Cl` [Example 323, (R)-5-(5-(1-(3,5-dichloropyridin-4-yl)ethoxy)-4-fluoro-1H-indazol-3-yl)-2-(3-((dimethyl-phosphoryl)methyl)-3-methylazetidin-1-yl)nicotinonitrile], the Kd on FGFR1 was over 1000 nM; on FGFR2, over 1000 nM; at FGFR3, over 1000 nM; on FGFR3 (V555M), 300 to 1000 nM; on FGFR4, 1 to 50 nM.

On to `C[C@@H](Oc1ccc2[nH]nc(-c3cnc(N4CC(C)(NCCO)C4)c(C#N)c3)c2c1F)c1c(Cl)cncc1Cl` [Example 324, (R)-5-(5-(1-(3,5-dichloropyridin-4-yl)ethoxy)-4-fluoro-1H-indazol-3-yl)-2-(3-((2-hydroxy-ethyl)amino)-3-methylazetidin-1-yl)nicotinonitrile], for which the dissociation constant (Kd) is over 1000 nM at FGFR1; over 1000 nM at FGFR2; over 1000 nM on FGFR3; 300 to 1000 nM at FGFR3 (V555M); 1 to 50 nM on FGFR4.

For the molecule `CC(C)NCC1(C)CN(c2ncc(-c3n[nH]c4ccc(O[C@H](C)c5c(Cl)cncc5Cl)c(F)c34)cc2C#N)C1` [Example 326, (R)-5-(5-(1-(3,5-dichloropyridin-4-yl)ethoxy)-4-fluoro-1H-indazol-3-yl)-2-(3-((isopropylamino)methyl)-3-methylazetidin-1-yl)nicotinonitrile], the dissociation constant Kd was over 1000 nM on FGFR1; over 1000 nM at FGFR2; over 1000 nM on FGFR3; over 1000 nM on FGFR3 (V555M); 1 to 50 nM at FGFR4.

Turning to `C[C@@H](Oc1ccc2[nH]nc(-c3cnc(N4CC(C)(N5CCOCC5)C4)c(C#N)c3)c2c1F)c1c(Cl)cncc1Cl` [Example 327, (R)-5-(5-(1-(3,5-dichloropyridin-4-yl)ethoxy)-4-fluoro-1H-indazol-3-yl)-2-(3-methyl-3-morpholinoazetidin-1-yl)nicotinonitrile], the Kd on FGFR1 is over 1000 nM; on FGFR2, over 1000 nM; on FGFR3, over 1000 nM; on FGFR3 (V555M) it was over 1000 nM; on FGFR4, 50 to 300 nM.
